Where two headings read alike, the source gives them in different places.
Legend:
[1] = system: recurrent glioblastoma multiforme (GBM); test: Phase I/II dose-escalation study, tumor response in GBM patients; assay type: in vivo, human
Text: (§1) The methodology of the study reported in this Example is as follows: An open-label, single arm Phase I/II dose-escalation study designed to evaluate the safety, tolerability, pharmacokinetics and anti-tumor activity of dianhydrogalactitol in patients with: (i) histologically confirmed initial diagnosis of primary WHO Grade IV malignant GBM, now recurrent, or (ii) progressive secondary brain tumor, having failed standard brain radiotherapy, and with brain tumor progression after at least one line of systemic therapy. The study utilizes a 3+3 dose escalation design, until the MTD or the maximum specified dose is reached. Patients receive dianhydrogalactitol intravenously at the assigned dose on days 1, 2, and 3 of each 21-day treatment cycle. In Phase II, additional patients will be treated at the MTD (or other selected optimum Phase II dose) to measure tumor responses. All patients enrolled have previously been treated with surgery and/or radiation, if appropriate, and must have failed both bevacizumab and TMZ, unless contraindicated. For these studies, the following is a summary of the inclusion criteria: (1) Patients must be greater than or equal to 18 years old. (2) There is a histologically confirmed initial diagnosis of primary WHO Grade IV malignant glioma (glioblastoma), now recurrent, or progressive secondary brain tumor, the patient has failed standard brain radiotherapy, and the patient has brain tumor progression after at least one line of systemic therapy. […] (4) The patient must have a predicted life expectancy of at least 12 weeks. The following is a summary of the exclusion criteria: (1) There is a current history of neoplasm other than the entry diagnosis. Patients with previous cancers treated and cured with local therapy alone may be considered. (2) There is evidence of leptomeningeal spread of disease. […] (4) The patient had undergone prior treatment with intracerebral agents. […] (6) The patient is being administered concomitant medications that are strong inhibitors of cytochrome P450 and CYP3A up to 14 days before Cycle 1, Day 1 (pimozide, diltiazem, erythromycin, clarithromycin, and quinidine, and amiodarone up to 90 days before.
(§2) Enrollment and evaluation of Cohort 7 (40 mg/m^2) is ongoing. Higher doses may be enrolled subject to completion of mandated safety observation period with Cohort 6 (30 mg/m^2). Patients enrolled present with refractory progressive GBM and a dire prognosis. […] The primary endpoint of this portion of the study is to determine a modernized dosing regimen for advancement to registration-directed clinical trials. […] In this design, it is not possible to perform a rigorous assessment of patient benefit due to slowed tumor growth. Tumor volume is assessed during the study based on RANO criteria. […] Outcomes analysis of cohort 6 is ongoing. These preliminary data support continued exploration of higher dose cohorts.

[2] = Phase I/II dose-escalation study, safety (DLT, SAE, MTD); assay type: in vivo, human; conditions: for drug-related serious adverse events: dose cohorts completed to date
Text: as §1, with “Patients receive dianhydrogalactitol intravenously at the assigned dose on days 1, 2, and 3 of each 21-day treatment cycle.” left out
as §2

[3] = Phase I/II dose-escalation study, plasma pharmacokinetics; assay type: in vivo, human
Text: The methodology of the study reported in this Example is as follows: An open-label, single arm Phase I/II dose-escalation study designed to evaluate the safety, tolerability, pharmacokinetics and anti-tumor activity of dianhydrogalactitol in patients with: (i) histologically confirmed initial diagnosis of primary WHO Grade IV malignant GBM, now recurrent, or (ii) progressive secondary brain tumor, having failed standard brain radiotherapy, and with brain tumor progression after at least one line of systemic therapy. The study utilizes a 3+3 dose escalation design, until the MTD or the maximum specified dose is reached. Patients receive dianhydrogalactitol intravenously at the assigned dose on days 1, 2, and 3 of each 21-day treatment cycle. In Phase II, additional patients will be treated at the MTD (or other selected optimum Phase II dose) to measure tumor responses. All patients enrolled have previously been treated with surgery and/or radiation, if appropriate, and must have failed both bevacizumab and TMZ, unless contraindicated. For these studies, the following is a summary of the inclusion criteria: (1) Patients must be greater than or equal to 18 years old. […]

[4] = cited from earlier work
[5] = secondary brain tumor patients, n = 6

## dianhydrogalactitol
[1]; 30 mg/m^2, one of two patients, after 1 cycle of treatment
  tumor response in cohort 6: stable disease
[1]; GBM, n = 8
  Tumor Response, PR (number of patients): PR (1); SD (1)
  Tumor Response, SD (number of patients): PR (1); SD (1)
[1]; GBM, n = 8, prior Surgery/XRT/TMZ/BEV
  Tumor Response, Overall: Overall = 25%
[1]; Patient #26, T=64 days versus T=0, after two cycles
  MRI scan findings: Thick confluent regions of abnormal enhancement have diminished
[2]; 1.5 mg/m^2, cumulative 9 mg/m^2 in 33-day cycle
  Status (DLT): Completed - No DLT
[2]; 3.0 mg/m^2, cumulative 18 mg/m^2 in 33-day cycle
  Status (DLT): Completed - No DLT
[2]; 5.0 mg/m^2, cumulative 30 mg/m^2 in 33-day cycle
  Status (DLT): Completed - No DLT
[2]; 10.0 mg/m^2, cumulative 60 mg/m^2 in 33-day cycle
  Status (DLT): Completed - NO DLT
[2]; 20.0 mg/m^2 (revised scheme), cumulative 120 mg/m^2 in 33-day cycle
  Status (DLT): Completed - NO DLT
[2]; 30.0 mg/m^2 (revised scheme), cumulative 180 mg/m^2 in 33-day cycle, analysis ongoing
  Status (DLT): Completed - No DLT
[2]; GBM patients, n = 8
  DLT: None
[2]
  drug-related serious adverse events: No drug-related serious adverse events have been detected
[2]; listed as Dianhydrogalactitol
  drug-related serious adverse events: no drug-related serious adverse events have been detected
[2]; five dose cohorts completed, not yet reached
  maximum tolerated dose (MTD), as 33 day cycle cumulative dose: > 120 mg/m^2
[2]; i.v. on days 1, 2, and 3 of each 21-day cycle, not reached
  maximum tolerated dose (MTD): > 30 mg/m^2
[2]; [5]
  DLT: None
  SAE: None (n = 5)
[3]; dose cohorts of the current trial
  pharmacokinetics, dose dependence: linear
[3]; i.v., patients
  plasma half-life: 1 to 2 h
[4]; GBM chemotherapy, historical data
  Recovery: Within 7-8 days
[4]; human, in vivo
  DLT: Hematologic
  Nadir: 18 to 21 days
  Other Severe Toxicities Reported (>2%): None
